Measurements from US20230330093A1, “APPLICATION OF NITROGEN-CONTAINING SATURATED HETEROCYCLIC COMPOUND” (SHANGHAI PHARMACEUTICALS HOLDING CO., LTD., priority 2020, published 2023).
Several values for one entry are separate records, joined by “and”; a condition that tells them apart may be missing. Equal values may be shown once.

Experiments:
[1] = tested on: rhesus monkeys with spontaneous chronic kidney disease (CKD); experiment: Effect on UACR (proteinuria), 8-week oral administration; type: in vivo, Macaca mulatta (Rhesus Macaque); details: 2-5 mg/kg qd for 8 weeks
Procedure: CKD-EPI rating […]-G3b, glomerular filtration rate eGFR: 30 59 ml/min/1.73 m^2; or moderate to severe increase in proteinuria (A2-A3): urine albumin/creatinine ratio (UACR)>15 mg/g-350 mg/g (4-6 hour urine collection), vs. age-matched control group 3±2 mg/g. In the trial, animals were brought in three stages. […] ELISA kit was used for NT-proBNP test. [table]

[2] = tested on: rhesus monkeys with spontaneous chronic kidney disease; experiment: Effect on cystatin C (CysC), 8-week administration; type: in vivo, Macaca mulatta (Rhesus Macaque)
Procedure: In the trial, animals were brought in three stages. […] Glomerular filtration rate […]: creatinine (Cr-P), urea nitrogen (BUN) and cystatin (CysC) were detected, and the eGFR value was obtained by calculation. It was performed once before the administration and once every two weeks after the administration. […] ELISA kit was used for NT-proBNP test. [table]

[3] = tested on: rhesus monkeys with spontaneous chronic kidney disease; experiment: Effect on heart function, cardiac Doppler ultrasound, 8-week administration
Procedure: In the trial, animals were brought in three stages.
This was performed once before administration and once after administration. UACR=MALB/Cr—U. • Blood pressure: the blood pressure was checked after anesthesia, including systolic blood pressure (SBP), diastolic blood pressure (DBP), mean blood pressure (MBP) and heart rate (HR). This was performed once before administration and once at weeks 4 and 8 respectively after administration. • Cardiac GE Doppler ultrasound: historical cardiac ultrasonography once within 1 year (selected animals), once before administration (within 30 days (D-30) of the baseline period), and once at week 8 after administration.
Anesthesia method: 15 mg/kg of ketamine hydrochloride was used for intramuscular injection anesthesia. According to the animal anesthesia state, the supplemental anesthesia will be performed after judgment by veterinarian. Each supplemental anesthesia dose was ½ of the initial dose.
Detection method: The animal was placed in the left decubitus position, and the 6S-RS probe (frequency 2.7-8.0 MHz) was used for image acquisition.
Analysis method: After the image was collected and saved, the supporting analysis workstation EchoPAC Software was used to repeatedly detect various indicators of systolic and diastolic functions in 3 consecutive cardiac cycles.
Testing indicators and ultrasonic technology: see Table 9 below.
Testing equipment: GE Vivid S5 color Doppler ultrasound diagnostic system.

[4] = tested on: rhesus monkeys with spontaneous chronic kidney disease; experiment: Safety tolerance study (adverse events, liver and renal function, food intake, body weight, hematology), 8-week administration; type: in vivo, Macaca mulatta (Rhesus Macaque); details: 1, 2, 5 mg/kg qd groups, 8-week administration period
From the text: Glucose and lipid metabolism and liver function: FPG, FRA, LDL-c, HDL-c, TG, TC, NT-proBNP, ALT, AST, TBIL, etc., twice before administration, once at weeks 4 and 8 respectively after administration;
Other biochemical indicators and hematology testing, once each before and after administration;
Body weight: once before administration, once a week during the administration period;
Hematology testing equipment: Siemens ADVIA 2120i Hematology Systems.
Number of observations: Observation was performed once a day.
Observation method: observation in cage.
Observation content: injection site, skin, hair, eyes, ears, nose, oral cavity, chest, abdomen, urogenital, limbs and other parts, as well as breathing, exercise, urinary, defecation and behavior changes.
Feeding method: Food was supplied once at 8:009:00 in the morning, 10:00 in the morning, 2:00 in the afternoon, and 4:00 in the afternoon, respectively, to ensure that there was food in the food box and animals ate freely. The remaining feed was removed at 07:40-8:00 in the next day.
Feeding amount: about 250-500 g/animal/day. In the experiment, it was ensured that there was feed in the food box for 24 hours, and the animals can eat freely.
Method for measuring food intake: The feed was estimated by a semi-quantitative method, and the amount of food given, the amount discarded and the remaining amount in food boxes were recorded every day. […]

[5] = 1 mg/kg (n = 5), Baseline, single animals and Mean ± SD
[6] = 2 mg/kg (n = 5), Baseline, single animals and Mean ± SD
[7] = 5 mg/kg (n = 6), Baseline, single animals and Mean ± SD

COC(=O)NCCCn1nc([C@@H](C)N(C(=O)[C@H]2CNCCO2)C2CC2)c2ccc(C)nc21.O=C(O)C[C@H](O)C(=O)O [malate of compound of Formula I]
proteinuria (UACR) improvement [1]: can be significantly improved
CysC ([2]; 1 mg/kg (n = 5), 2 weeks): 1.66 mg/L and 1.64 mg/L and 1.83 mg/L and 1.55 mg/L
CysC ([2]; 1 mg/kg (n = 5), 2 weeks, mean): 1.70 ± 0.12 mg/L
CysC ([2]; 1 mg/kg (n = 5), 4 weeks): 1.49 mg/L and 1.43 mg/L and 1.57 mg/L and 1.76 mg/L and 1.50 mg/L
CysC ([2]; 1 mg/kg (n = 5), 4 weeks, mean): 1.55 ± 0.13 mg/L
CysC ([2]; 1 mg/kg (n = 5), 6 weeks): 1.48 mg/L and 1.61 mg/L and 1.62 mg/L and 1.68 mg/L and 1.50 mg/L
CysC ([2]; 1 mg/kg (n = 5), 6 weeks, mean): 1.58 ± 0.08 mg/L
CysC ([2]; 1 mg/kg (n = 5), 8 weeks): 1.51 mg/L and 1.59 mg/L and 1.62 mg/L and 1.77 mg/L
CysC ([2]; 1 mg/kg (n = 5), 8 weeks, mean): 1.60 ± 0.11 mg/L
CysC [2, 5]: 1.67 mg/L and 1.80 mg/L and 1.72 mg/L and 1.84 mg/L and 1.75 mg/L
CysC ([2]; 1 mg/kg (n = 5), Baseline, single animals and Mean ± SD, mean): 1.76 ± 0.07 mg/L
CysC ([2]; 2 mg/kg (n = 5), 2 weeks): 1.44 mg/L and 1.97 mg/L and 1.71 mg/L and 1.73 mg/L and 1.51 mg/L
CysC ([2]; 2 mg/kg (n = 5), 2 weeks, mean): 1.67 ± 0.21 mg/L
CysC ([2]; 2 mg/kg (n = 5), 4 weeks): 1.31 mg/L and 1.77 mg/L and 1.56 mg/L and 1.43 mg/L and 1.47 mg/L
CysC ([2]; 2 mg/kg (n = 5), 4 weeks, mean): 1.51 ± 0.17 mg/L
CysC ([2]; 2 mg/kg (n = 5), 6 weeks): 1.39 mg/L and 1.76 mg/L and 1.65 mg/L and 1.54 mg/L and 1.42 mg/L
CysC ([2]; 2 mg/kg (n = 5), 6 weeks, mean): 1.55 ± 0.16 mg/L
CysC ([2]; 2 mg/kg (n = 5), 8 weeks): 1.36 mg/L and 1.68 mg/L and 1.58 mg/L and 1.55 mg/L and 1.47 mg/L
CysC ([2]; 2 mg/kg (n = 5), 8 weeks, mean): 1.53 ± 0.12 mg/L
CysC [2, 6]: 1.57 mg/L and 1.87 mg/L and 1.72 mg/L and 1.69 mg/L and 1.56 mg/L
CysC ([2]; 2 mg/kg (n = 5), Baseline, single animals and Mean ± SD, mean): 1.68 ± 0.13 mg/L
CysC ([2]; 5 mg/kg (n = 6), 2 weeks): 1.63 mg/L and 1.45 mg/L and 2.63 mg/L and 1.46 mg/L and 1.64 mg/L
CysC ([2]; 5 mg/kg (n = 6), 2 weeks, mean): 1.74 ± 0.44 mg/L
CysC ([2]; 5 mg/kg (n = 6), 4 weeks): 1.68 mg/L and 1.73 mg/L and 1.64 mg/L and 2.41 mg/L and 1.36 mg/L and 1.44 mg/L
CysC ([2]; 5 mg/kg (n = 6), 4 weeks, mean): 1.71 ± 0.37 mg/L
CysC ([2]; 5 mg/kg (n = 6), 6 weeks): 1.59 mg/L and 1.47 mg/L and 1.80 mg/L and 2.45 mg/L and 1.40 mg/L and 1.46 mg/L
CysC ([2]; 5 mg/kg (n = 6), 6 weeks, mean): 1.70 ± 0.40 mg/L
CysC ([2]; 5 mg/kg (n = 6), 8 weeks): 1.46 mg/L and 1.69 mg/L and 1.66 mg/L and 2.29 mg/L and 1.50 mg/L and 1.39 mg/L
CysC ([2]; 5 mg/kg (n = 6), 8 weeks, mean): 1.67 ± 0.33 mg/L
CysC [2, 7]: 1.49 mg/L and 1.63 mg/L and 1.61 mg/L and 2.52 mg/L and 1.47 mg/L and 1.55 mg/L
CysC ([2]; 5 mg/kg (n = 6), Baseline, single animals and Mean ± SD, mean): 1.71 ± 0.40 mg/L
E/Ea ([3]; 1 mg/kg (n = 5), 8 weeks): 10.68 and 11.36 and 8.16 and 8.95 and 10.64
Ea ([3]; 1 mg/kg (n = 5), 8 weeks): 5.35 cm/s and 5.65 cm/s and 6.99 cm/s and 5.37 cm/s and 5.06 cm/s
LVEF ([3]; 1 mg/kg (n = 5), 8 weeks): 63.95% and 55.81% and 54.03% and 61.01% and 49.37%
E/Ea ([3]; 1 mg/kg (n = 5), Baseline): 10.50 and 9.53 and 9.22 and 8.68 and 10.36
Ea ([3]; 1 mg/kg (n = 5), Baseline): 5.90 cm/s and 6.31 cm/s and 4.81 cm/s and 5.18 cm/s and 6.37 cm/s
LVEF [3, 5]: 65.25% and 55.89% and 54.86% and 69.87% and 47.92%
E/Ea ([3]; 2 mg/kg (n = 5), 8 weeks): 10.63 and 6.35 and 7.84 and 9.88 and 6.22
Ea ([3]; 2 mg/kg (n = 5), 8 weeks): 5.00 cm/s and 6.66 cm/s and 8.01 cm/s and 5.91 cm/s and 6.82 cm/s
LVEF ([3]; 2 mg/kg (n = 5), 8 weeks): 58.54% and 67.80% and 57.13% and 58.03% and 62.85%
LVEF [3, 6]: 54.41% and 70.41% and 57.45% and 57.90% and 62.76%
E/Ea ([3]; 5 mg/kg (n = 6), 8 weeks): 7.38 and 9.25 and 8.22 and 6.12 and 11.07
Ea ([3]; 5 mg/kg (n = 6), 8 weeks): 8.53 cm/s and 8.26 cm/s and 6.47 cm/s and 8.40 cm/s and 6.62 cm/s
LVEF ([3]; 5 mg/kg (n = 6), 8 weeks): 62.99% and 45.89% and 73.88% and 54.16% and 55.90%
LVEF [3, 7]: 63.71% and 42.11% and 71.95% and 49.98% and 59.46%
LVEF % compared with the baseline ([3]; 5 mg/kg, 8-week administration, 2 animals (No. 5073 and No. 287) with low ejection fraction): increased LVEF %
adverse reaction in the systolic and diastolic function (echocardiography) ([3]; rhesus monkey, in vivo): no obvious adverse reaction
adverse events related to administration [4]: no adverse events related to administration
changes in liver function, renal function, food intake, body weight, hematological indicators [4]: no significant changes were observed
